Source: patent US11034675B2, “Solid forms of Selinexor and process for their preparation” (DR. REDDY'S LABORATORIES LIMITED, priority 2016, dated 2021)

What was measured:
[1] = stability of amorphous form under hygroscopic conditions (higher relative humidity); format: physicochemical; conditions: higher relative humidity conditions of more than 60% RH
From the text: (§1) The present application provides a stable amorphous form of Selinexor suitable for powder handling and downstream processes. […] In an embodiment, the present application provides a stable amorphous form of Selinexor with less than 5% of crystallinity, preferably with less than 1% crystallinity and more preferably devoid of crystallinity as per X-ray diffraction analysis.

[2] = stability of amorphous form under mechanical stress (grinding, milling); format: physicochemical; conditions: mechanical stress such as grinding and milling
From the text: as §1

stability under hygroscopic conditions [1]: stable | stability under mechanical stress [2]: highly stable
SMILES: O=C(/C=C\n1cnc(-c2cc(C(F)(F)F)cc(C(F)(F)F)c2)n1)NNc1cnccn1 [Amorphous form of Selinexor, (Z)-3-(3-(3,5-bis(trifluoromethyl)phenyl)-IH—I,2,4-triazol-1-yl)-N′-(pyrazin-2yl) acrylohydrazide]
